From patent US11324795B2, “Composition comprising Hordeum vulgare extract for preventing or treating short stature” (UNIVERSITY-INDUSTRY COOPERATION GROUP OF KYUNG HEE …, priority 2013, dated 2022)

System: Sprague-Dawley female rats
Assay: Evaluation of longitudinal bone growth effect, tetracycline staining method
Format: in vivo, rat
Experimental: As experimental animals, four-week-old Sprague-Dawley female rats (Samtako, Korea) weighing about 100 g were purchased and cared for so as to be acclimatized to the experimental environment while supplying sufficient feed and water. After about 1 week for the acclimatization period, animal testing was performed.
Two days after administration, 20 mg/kg of tetracycline hydrochloride (Sigma T7660) was injected intraperitoneally to all test groups. Two days thereafter, the rats were sacrificed via cervical dislocation, after which the left and right tibiae were removed, fixed in a fixing solution at 4° C. for 3 days, allowed to stand in 50 mM EDTA for 1 day, demineralized, and immersed in 30% sucrose overnight to protect freezing. The bone tissue thus dehydrated was frozen, and cut into 40 μm sections using a sliding microtome (HM440E, Zeiss, Germany), thus collecting sagittal sections of the proximal part of the tibia. To measure the bone growth, each sagittal section of the proximal part of the tibia, 40 μm thick, was placed on a slide glass, dried, and then observed under UV light at a wavelength of 400 nm using a fluorescence microscope (FIG. 1). Using image analysis software ImageJ (NIH, USA), the length between the fluorescence bands formed by the deposition of tetracycline in the growth plate and the bone tissue was measured, and Student's t-test and ANOVA test for comparison with a control group were performed in order to determine the growth effect.
The Hordeum vulgare extract prepared in Example 1 was administered after having been dissolved in a concentration of 30 mg/kg in type II distilled water in a volume of 1.0 ml per 100 g of rat weight, and as a control group, the same volume of type II distilled water was administered. The Hordeum vulgare extract was orally administered two times a day for a total of four days, starting from 2 days before the administration of tetracycline until the test termination day. […]

For “Positive control group: recombinant human growth hormone (rhGH; LG Lifescience, Eutropin®)”, the “Longitudinal bone growth rate (%)” value (Table 1, extract 30 mg/kg (p.o.), positive control 20 μg/kg (s.c.)) was 6.6%, the “longitudinal bone growth rate” value (proximal tibia, tetracycline band length, 4 days dosing, extract 30 mg/kg p.o. two times a day, rhGH 20 μg/kg s.c. once a day) was 360.1±35.8 μm/day and the “longitudinal bone growth rate, % higher than normal control group” value (vs 337.8±30.0 μm/day in normal control group, extract 30 mg/kg p.o. (p<0.001), rhGH 20 μg/kg s.c. (not significant)) was 6.6%.
